# Species: Rattus norvegicus
# Assay: Open TG-GATES - Regimen: Single
# Format: toxicity, organism-based, Sprague-Dawley
# Set-up: regimen Single, gender Male, age 6 weeks
# Details: in vivo, po, 1000 mg/kg, route gavage, dose level High; for APTT / Bas / Eos / Fbg / Hb / Ht / Lym / MCH / MCHC / MCV / Mono / Neu / PT / Plat / RBC / Ret / WBC: tissue Blood; for KIDNEY_L / KIDNEY_R / KIDNEY_TOTAL: tissue Kidney; for LIVER: tissue Liver; for ALP / ALT / AST / BUN / CRE / Ca / Cl / DBIL / GLC / IP / K / LDH / Na / PL / RALB / TBIL / TC / TG / TP / gamma-GTP: tissue Plasma
structure (smiles),measurement,setting,value
COC(=O)C1=C(C)NC(C)=C(C(=O)OC)C1c1ccccc1[N+](=O)[O-] [NIFEDIPINE],TERMINAL_BW,3 h,207.9 g
same,APTT,3 h,16.6 s
same,Bas,3 h,0%
same,Eos,3 h,1%
same,Fbg,3 h,285.2 mg/dL
same,Hb,3 h,13 g/dL
same,Ht,3 h,39.9%
same,Lym,3 h,69.8%
same,MCH,3 h,20.8 pg
same,MCHC,3 h,32.6%
same,MCV,3 h,63.8 fL
same,Mono,3 h,4.6%
same,Neu,3 h,24.2%
same,PT,3 h,14.9 s
same,Plat,3 h,122.2 x10_4/uL
same,RBC,3 h,626 x10_4/ul
same,Ret,3 h,9.7%
same,WBC,3 h,108.1 x10_2/uL
same,KIDNEY_L,3 h,0.9 g
same,KIDNEY_R,3 h,0.9 g
same,KIDNEY_TOTAL,3 h,1.9 g
same,LIVER,3 h,8.4 g
same,ALP,3 h,1381.2 IU/L
same,ALT,3 h,51 IU/L
same,AST,3 h,74.8 IU/L
same,BUN,3 h,26.2 mg/dL
same,CRE,3 h,0.2 mg/dL
same,Ca,3 h,11.8 mg/dL
same,Cl,3 h,97.2 meq/L
same,DBIL,3 h,0.008 mg/dL
same,GLC,3 h,260.8 mg/dL
same,IP,3 h,9.2 mg/dL
same,K,3 h,5 meq/L
same,LDH,3 h,99.4 IU/L
same,Na,3 h,134.8 meq/L
same,PL,3 h,141.4 mg/dL
same,RALB,3 h,2.5 g/dL
same,TBIL,3 h,0.036 mg/dL
same,TC,3 h,81.6 mg/dL
same,TG,3 h,46.4 mg/dL
same,TP,3 h,5.2 g/dL
same,gamma-GTP,3 h,1.6 IU/L
same,TERMINAL_BW,6 h,205.1 g
same,APTT,6 h,16.5 s
same,Bas,6 h,0.2%
same,Eos,6 h,0.4%
same,Fbg,6 h,282.6 mg/dL
same,Hb,6 h,13 g/dL
same,Ht,6 h,39.6%
same,Lym,6 h,77%
same,MCH,6 h,20.6 pg
same,MCHC,6 h,32.8%
same,MCV,6 h,62.7 fL
same,Mono,6 h,3.6%
same,Neu,6 h,18%
same,PT,6 h,14.9 s
same,Plat,6 h,123.3 x10_4/uL
same,RBC,6 h,632.4 x10_4/ul
same,Ret,6 h,9.2%
same,WBC,6 h,92.1 x10_2/uL
same,KIDNEY_L,6 h,0.9 g
same,KIDNEY_R,6 h,0.9 g
same,KIDNEY_TOTAL,6 h,1.9 g
same,LIVER,6 h,7.3 g
same,ALP,6 h,1242.8 IU/L
same,ALT,6 h,50.6 IU/L
same,AST,6 h,83 IU/L
same,BUN,6 h,40.2 mg/dL
same,CRE,6 h,0.2 mg/dL
same,Ca,6 h,11 mg/dL
same,Cl,6 h,97.2 meq/L
same,DBIL,6 h,0.008 mg/dL
same,GLC,6 h,229.6 mg/dL
same,IP,6 h,11 mg/dL
same,K,6 h,5 meq/L
same,LDH,6 h,81 IU/L
same,Na,6 h,136.4 meq/L
same,PL,6 h,148.2 mg/dL
same,RALB,6 h,2.6 g/dL
same,TBIL,6 h,0.052 mg/dL
same,TC,6 h,90.2 mg/dL
same,TG,6 h,16.4 mg/dL
same,TP,6 h,5.4 g/dL
same,gamma-GTP,6 h,1 IU/L
same,TERMINAL_BW,9 h,206.6 g
same,APTT,9 h,16.7 s
same,Bas,9 h,0.4%
same,Eos,9 h,0.4%
same,Fbg,9 h,287 mg/dL
same,Hb,9 h,13.2 g/dL
same,Ht,9 h,39.8%
same,Lym,9 h,74%
same,MCH,9 h,20.8 pg
same,MCHC,9 h,33.3%
same,MCV,9 h,62.5 fL
same,Mono,9 h,4.8%
same,Neu,9 h,19.2%
same,PT,9 h,14.6 s
same,Plat,9 h,123.6 x10_4/uL
same,RBC,9 h,637 x10_4/ul
same,Ret,9 h,9.7%
same,WBC,9 h,96.3 x10_2/uL
same,KIDNEY_L,9 h,0.9 g
same,KIDNEY_R,9 h,0.9 g
same,KIDNEY_TOTAL,9 h,1.7 g
same,LIVER,9 h,7.1 g
same,ALP,9 h,1341 IU/L
same,AST,9 h,75.2 IU/L
same,BUN,9 h,41.8 mg/dL
same,CRE,9 h,0.2 mg/dL
same,Ca,9 h,10.8 mg/dL
same,Cl,9 h,96.4 meq/L
same,DBIL,9 h,0.008 mg/dL
same,GLC,9 h,217.4 mg/dL
same,IP,9 h,11.9 mg/dL
same,K,9 h,5.3 meq/L
same,LDH,9 h,85 IU/L
same,Na,9 h,134.6 meq/L
same,PL,9 h,152.4 mg/dL
same,RALB,9 h,2.6 g/dL
same,TBIL,9 h,0.052 mg/dL
same,TC,9 h,90.8 mg/dL
same,TG,9 h,22.2 mg/dL
same,TP,9 h,5.5 g/dL
same,gamma-GTP,9 h,1.4 IU/L
same,TERMINAL_BW,24 h,197.1 g
same,APTT,24 h,17.4 s
same,Bas,24 h,0.2%
same,Eos,24 h,0.8%
same,Fbg,24 h,374 mg/dL
same,Hb,24 h,13.1 g/dL
same,Ht,24 h,39.6%
same,Lym,24 h,72.8%
same,MCH,24 h,20.9 pg
same,MCHC,24 h,33.1%
same,MCV,24 h,63.3 fL
same,Mono,24 h,3.6%
same,Neu,24 h,22%
same,PT,24 h,13.7 s
same,Plat,24 h,142.3 x10_4/uL
same,RBC,24 h,625.8 x10_4/ul
same,Ret,24 h,9.7%
same,WBC,24 h,99.5 x10_2/uL
same,KIDNEY_L,24 h,0.8 g
same,KIDNEY_R,24 h,0.9 g
same,KIDNEY_TOTAL,24 h,1.7 g
same,LIVER,24 h,6.9 g
same,ALP,24 h,1549.8 IU/L
same,ALT,24 h,40.6 IU/L
same,AST,24 h,67.8 IU/L
same,BUN,24 h,10.8 mg/dL
same,CRE,24 h,0.2 mg/dL
same,Ca,24 h,10.4 mg/dL
same,Cl,24 h,106 meq/L
same,DBIL,24 h,0.012 mg/dL
same,GLC,24 h,167 mg/dL
same,IP,24 h,8.6 mg/dL
same,K,24 h,3.8 meq/L
same,LDH,24 h,78.2 IU/L
same,Na,24 h,143 meq/L
same,PL,24 h,126.4 mg/dL
same,RALB,24 h,2.9 g/dL
same,TBIL,24 h,0.054 mg/dL
same,TC,24 h,78 mg/dL
same,TG,24 h,27 mg/dL
same,TP,24 h,6.1 g/dL
same,gamma-GTP,24 h,1 IU/L

# — ChEMBL document CHEMBL3885861, “Open TG-GATES”
